The record followed here is PubChem BioAssay AID252 (DTP/NCI, 2004).

The test system of the experiment is BDF1 mice, intracerebral L1210 leukemia, survival T/C. In words: NCI In Vivo Anticancer Drug Screen. Data for tumor model L1210 Leukemia (intracerebral) in B6D2F1 (BDF1) mice. The following applies: higher = longer survival. In short, it runs like this: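 Mice carrying transplanted tumour were dosed with compound; survival was recorded and expressed as treated-group value (T) divided by vehicle-control value (C).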

Values joined by “and” are separate entries in the source; they are usually repeats but may differ in a detail not shown here. Equal entries are not always repeated. Toxic doses and inconclusive results are not listed.

`O=P1(N(CCCl)CCCl)NCCCO1` (configuration not stated): the T/C by setting is: (endpoint: mean survival time, dose: 17.5 mg/kg/injection, schedule: Q01DX Z (ip), vehicle: saline) 116 % of control; (endpoint: mean survival time, dose: 22.0 mg/kg/injection, schedule: Q01DX015 (ip), vehicle: saline) 112 % of control; (endpoint: mean survival time, dose: 25.0 mg/kg/injection, schedule: Q01DX Z (ip), vehicle: saline) 121 % of control; (endpoint: mean survival time, dose: 28.0 mg/kg/injection, schedule: Q01DX001 (ip), vehicle: saline) 104 % of control and 118 % of control; (endpoint: mean survival time, dose: 33.5 mg/kg/injection, schedule: Q01DX015 (ip), vehicle: saline) 123 % of control; (endpoint: mean survival time, dose: 39.0 mg/kg/injection, schedule: Q01DX009 (sc), vehicle: saline) 151 % of control. Further, the T/C (endpoint: mean survival time, dose: 50.0 mg/kg/injection, schedule: Q01DX001 (ip), vehicle: DMSO) was 111 % of control and 119 % of control and 121 % of control; the T/C (endpoint: mean survival time, dose: 50.0 mg/kg/injection, schedule: Q01DX001 (ip), vehicle: Klucel (hydroxypropylcellulose) (HPC)) is 119 % of control and 121 % of control; the T/C (endpoint: mean survival time, dose: 50.0 mg/kg/injection, schedule: Q01DX001 (ip), vehicle: water) was 111 % of control; the T/C (endpoint: mean survival time, dose: 50.0 mg/kg/injection, schedule: Q08DX002 (ip), vehicle: saline) is 115 % of control; the T/C (endpoint: mean survival time, dose: 59.0 mg/kg/injection, schedule: Q01DX001 (ip), vehicle: saline) was 117 % of control; the T/C (endpoint: mean survival time, dose: 65.0 mg/kg/injection, schedule: Q01DX009 (sc), vehicle: saline) is 151 % of control. The T/C is 112 % of control (endpoint: mean survival time, dose: 100.0 mg/kg/injection, schedule: Q01DX001 (ip), vehicle: water); 110 % of control (endpoint: mean survival time, dose: 100.0 mg/kg/injection, schedule: Q01DX Z (ip), vehicle: saline); 117 % of control (endpoint: mean survival time, dose: 100.0 mg/kg/injection, schedule: Q08DX002 (ip), vehicle: saline); 110 % of control (endpoint: mean survival time, dose: 108.0 mg/kg/injection, schedule: Q01DX009 (sc), vehicle: saline); 158 % of control (endpoint: mean survival time, dose: 118.0 mg/kg/injection, schedule: Q01DX001 (ip), vehicle: saline); 110 % of control (endpoint: mean survival time, dose: 200.0 mg/kg/injection, schedule: Q01DX001 (ip), vehicle: DMSO). Also, the T/C runs as follows: (endpoint: mean survival time, dose: 200.0 mg/kg/injection, schedule: Q01DX001 (ip), vehicle: Klucel (hydroxypropylcellulose) (HPC)) 119 % of control; (endpoint: mean survival time, dose: 200.0 mg/kg/injection, schedule: Q01DX001 (ip), vehicle: water) 119 % of control; (endpoint: mean survival time, dose: 230.0 mg/kg/injection, schedule: Q01DX001 (ip), vehicle: saline) 157 % of control; (endpoint: mean survival time, dose: 234.0 mg/kg/injection, schedule: Q01DX001 (ip), vehicle: saline) 168 % of control; (endpoint: mean survival time, dose: 300.0 mg/kg/injection, schedule: Q01DX001 (ip), vehicle: saline) 114 % of control; (endpoint: mean survival time, dose: 400.0 mg/kg/injection, schedule: Q08DX002 (ip), vehicle: saline) 102 % of control. The T/C is 152 % of control and 172 % of control (endpoint: mean survival time, dose: 468.0 mg/kg/injection, schedule: Q01DX001 (ip), vehicle: saline); 106 % of control (endpoint: mean survival time, dose: 500.0 mg/kg/injection, schedule: Q01DX001 (ip), vehicle: saline); 151 % of control (endpoint: mean survival time, dose: 560.0 mg/kg/injection, schedule: Q01DX001 (ip), vehicle: saline); 119 % of control (endpoint: median survival time, dose: 1000.0 mg/kg/injection, schedule: Q01DX001 (oral), vehicle: saline); 516 % of control (endpoint: median survival time, dose: 2000.0 mg/kg/injection, schedule: Q01DX001 (oral), vehicle: saline); 45 % of control (endpoint: median survival time, dose: 8000.0 mg/kg/injection, schedule: Q01DX001 (oral), vehicle: saline). Further, the T/C (endpoint: median survival time, dose: 16000.0 mg/kg/injection, schedule: Q01DX001 (oral), vehicle: saline) was 43 % of control.
Turning to `CCOC(=O)c1ccc(NC(=O)N(CCCl)N=O)cc1`, the T/C was 108 % of control (endpoint: mean survival time, dose: 4.0 mg/kg/injection, schedule: Q01DX001 (ip), vehicle: carboxymethylcellulose (CMC)); 107 % of control (endpoint: mean survival time, dose: 6.0 mg/kg/injection, schedule: Q01DX001 (ip), vehicle: carboxymethylcellulose (CMC)); 108 % of control (endpoint: mean survival time, dose: 9.0 mg/kg/injection, schedule: Q01DX001 (ip), vehicle: carboxymethylcellulose (CMC)); 113 % of control (endpoint: mean survival time, dose: 13.5 mg/kg/injection, schedule: Q01DX001 (ip), vehicle: carboxymethylcellulose (CMC)).
Consider `CCOC(=O)C1CCC(NC(=O)N(CCCl)N=O)CC1` (configuration not stated), for which the T/C reads like this: (endpoint: mean survival time, dose: 4.0 mg/kg/injection, schedule: Q01DX001 (ip), vehicle: other) 103 % of control and 113 % of control; (endpoint: mean survival time, dose: 8.0 mg/kg/injection, schedule: Q01DX001 (ip), vehicle: other) 110 % of control; (endpoint: mean survival time, dose: 14.0 mg/kg/injection, schedule: Q01DX001 (ip), vehicle: other) 118 % of control; (endpoint: mean survival time, dose: 31.0 mg/kg/injection, schedule: Q01DX001 (ip), vehicle: other) 179 % of control and 203 % of control; (endpoint: mean survival time, dose: 33.0 mg/kg/injection, schedule: Q01DX001 (ip), vehicle: other) 169 % of control and 203 % of control; (endpoint: mean survival time, dose: 44.0 mg/kg/injection, schedule: Q01DX001 (ip), vehicle: other) 225 % of control. The T/C is 203 % of control and 239 % of control (endpoint: mean survival time, dose: 47.0 mg/kg/injection, schedule: Q01DX001 (ip), vehicle: other); 175 % of control and 303 % of control (endpoint: mean survival time, dose: 66.0 mg/kg/injection, schedule: Q01DX001 (ip), vehicle: other); 155 % of control (endpoint: mean survival time, dose: 67.0 mg/kg/injection, schedule: Q01DX001 (ip), vehicle: other); 151 % of control (endpoint: mean survival time, dose: 70.0 mg/kg/injection, schedule: Q01DX001 (ip), vehicle: other).
Turning to `COC1=C(N2CC2)C(=O)C(OC)=C(N2CC2)C1=O`, the T/C was 101 % of control (endpoint: mean survival time, dose: 0.12 mg/kg/injection, schedule: Q01DX009 (ip), vehicle: saline); 95 % of control (endpoint: mean survival time, dose: 0.25 mg/kg/injection, schedule: Q01DX009 (ip), vehicle: saline); 104 % of control and 106 % of control and 98 % of control (endpoint: mean survival time, dose: 0.5 mg/kg/injection, schedule: Q01DX009 (ip), vehicle: saline); 105 % of control and 111 % of control and 121 % of control (endpoint: mean survival time, dose: 1.0 mg/kg/injection, schedule: Q01DX009 (ip), vehicle: saline); 114 % of control and 117 % of control (endpoint: mean survival time, dose: 2.0 mg/kg/injection, schedule: Q01DX009 (ip), vehicle: saline); 86 % of control (endpoint: mean survival time, dose: 4.0 mg/kg/injection, schedule: Q01DX009 (ip), vehicle: saline).
As for `Cc1cccc(C)c1NC(=O)N(CCCl)N=O`, the T/C by setting is: (endpoint: mean survival time, dose: 13.0 mg/kg/injection, schedule: Q01DX001 (ip), vehicle: carboxymethylcellulose (CMC)) 113 % of control; (endpoint: mean survival time, dose: 20.0 mg/kg/injection, schedule: Q01DX001 (ip), vehicle: carboxymethylcellulose (CMC)) 112 % of control; (endpoint: mean survival time, dose: 30.0 mg/kg/injection, schedule: Q01DX001 (ip), vehicle: carboxymethylcellulose (CMC)) 119 % of control.
`CN(C)N=Nc1ccc(C(N)=O)cc1`: the T/C is 98 % of control (endpoint: median survival time, dose: 10.0 mg/kg/injection, schedule: Q01DX009 (ip), vehicle: saline with Tween-80); 107 % of control (endpoint: median survival time, dose: 20.0 mg/kg/injection, schedule: Q01DX009 (ip), vehicle: saline with Tween-80); 109 % of control (endpoint: median survival time, dose: 40.0 mg/kg/injection, schedule: Q01DX009 (ip), vehicle: saline with Tween-80).
Turning to `COc1cc(NS(C)(=O)=O)ccc1Nc1c2cccc(C)c2nc2c(C)cccc12`, the T/C (endpoint: mean survival time, dose: 6.25 mg/kg/injection, schedule: Q01DX009 (ip), vehicle: water) was 111 % of control; the T/C (endpoint: mean survival time, dose: 6.25 mg/kg/injection, schedule: Q01DX009 (sc), vehicle: water) was 98 % of control; the T/C (endpoint: mean survival time, dose: 12.5 mg/kg/injection, schedule: Q01DX009 (sc), vehicle: water) was 101 % of control; the T/C (endpoint: mean survival time, dose: 25.0 mg/kg/injection, schedule: Q01DX001 (ip), vehicle: saline) was 101 % of control; the T/C (endpoint: mean survival time, dose: 25.0 mg/kg/injection, schedule: Q01DX009 (ip), vehicle: water) was 114 % of control; the T/C (endpoint: mean survival time, dose: 25.0 mg/kg/injection, schedule: Q01DX009 (sc), vehicle: water) was 103 % of control. In addition, the T/C was 107 % of control (endpoint: mean survival time, dose: 50.0 mg/kg/injection, schedule: Q01DX001 (ip), vehicle: saline); 104 % of control (endpoint: mean survival time, dose: 50.0 mg/kg/injection, schedule: Q01DX009 (sc), vehicle: water); 110 % of control (endpoint: mean survival time, dose: 100.0 mg/kg/injection, schedule: Q01DX001 (ip), vehicle: saline); 112 % of control (endpoint: mean survival time, dose: 200.0 mg/kg/injection, schedule: Q01DX001 (ip), vehicle: saline).
